The values below come from ChEMBL document CHEMBL1641470, “New azoles with antifungal activity: Design, synthesis, and molecular docking” (2011).

The structures appear in SMILES notation. In brackets after ≈: the same amount, converted by molar mass.

As a reminder, the MIC80 is an inhibitory concentration at the 80% level, which refers to growth in some studies and to a panel of isolates in others. Low readings indicate greater potency, high ones weaker potency.

Holding throughout (format): functional
One assay concerns Candida albicans. Kind of assay: Antifungal activity against Candida albicans ATCC Y0109 after 24 hrs by broth microdilution method.
A further assay relates to Cryptococcus neoformans. The assay can be described thus: Antifungal activity against Cryptococcus neoformans ATCC BLS108 after 72 hrs by broth microdilution method. On the technique in general: Dilution methods test growth across graded concentrations, often in twofold steps.
In another assay the test system is Candida parapsilosis. Kind of assay: Antifungal activity against Candida parapsilosis by broth microdilution method. The note with it: Lodderomyces parapsilosis.
The subject of another assay is Candida tropicalis. Kind of assay: Antifungal activity against Candida tropicalis by broth microdilution method.
The next assay relates to Trichophyton rubrum. The assay can be described thus: Antifungal activity against Trichophyton rubrum by broth microdilution method.
The test system of the next assay is Fusarium. The assay can be described thus: Antifungal activity against Fusarium by broth microdilution method.
A further assay concerns Nannizzia gypsea. The assay can be described thus: Antifungal activity against Microsporum gypseum by broth microdilution method.
In the next assay the test system is Aspergillus fumigatus. The assay can be described thus: Antifungal activity against Aspergillus fumigatus by broth microdilution method.

For the compound `O=C(/C=C/c1ccccc1)Nc1ccc(N2CCN(CC(O)(Cn3cncn3)c3ccc(F)cc3F)CC2)cc1` (stereo unspecified), the MIC80 came out at 0.0156 µg/mL (≈ 0.0286 µM) with Candida albicans; 0.25 µg/mL (≈ 0.459 µM) with Cryptococcus neoformans; 0.0625 µg/mL (≈ 0.115 µM) in the assay on Candida parapsilosis; 0.0625 µg/mL (≈ 0.115 µM) in the assay on Candida tropicalis; 0.0039 µg/mL (≈ 0.00716 µM) in the assay on Trichophyton rubrum; 0.0625 µg/mL (≈ 0.115 µM) in the assay on Fusarium. Also, the results for the MIC80 in the assay with Nannizzia gypsea and against Aspergillus fumigatus were 0.25 µg/mL (≈ 0.459 µM) and 16 µg/mL (≈ 29.4 µM), respectively.
Turning to `O=C(/C=C/c1ccccc1F)Nc1ccc(N2CCN(CC(O)(Cn3cncn3)c3ccc(F)cc3F)CC2)cc1` (stereo unspecified), the MIC80 came out at 0.0039 µg/mL (≈ 0.00693 µM) against Candida albicans; 0.0625 µg/mL (≈ 0.111 µM) against Cryptococcus neoformans; 0.0625 µg/mL (≈ 0.111 µM) against Candida parapsilosis; 0.0156 µg/mL (≈ 0.0277 µM) against Candida tropicalis; 0.25 µg/mL (≈ 0.444 µM) with Trichophyton rubrum; 1 µg/mL (≈ 1.78 µM) in the assay on Fusarium. Besides, the MIC80 is 0.0625 µg/mL (≈ 0.111 µM) in the assay on Nannizzia gypsea and > 64 µg/mL against Aspergillus fumigatus.
For the compound `O=C(/C=C/c1cccc(F)c1)Nc1ccc(N2CCN(CC(O)(Cn3cncn3)c3ccc(F)cc3F)CC2)cc1` (stereo unspecified), the MIC80 with Candida albicans was found to be 0.0156 µg/mL (≈ 0.0277 µM); in the assay with Cryptococcus neoformans it was 0.25 µg/mL (≈ 0.444 µM); against Candida parapsilosis, 0.25 µg/mL (≈ 0.444 µM); in the assay with Candida tropicalis, 0.25 µg/mL (≈ 0.444 µM); with Trichophyton rubrum it was 0.25 µg/mL (≈ 0.444 µM); in the assay on Fusarium, 1 µg/mL (≈ 1.78 µM). The values for the MIC80 against Nannizzia gypsea and with Aspergillus fumigatus were 0.0156 µg/mL (≈ 0.0277 µM) and 4 µg/mL (≈ 7.11 µM), respectively.
Consider `O=C(/C=C/c1ccc(F)cc1)Nc1ccc(N2CCN(CC(O)(Cn3cncn3)c3ccc(F)cc3F)CC2)cc1` (stereo unspecified), for which the MIC80 stood at 0.0625 µg/mL (≈ 0.111 µM) with Candida albicans; 0.25 µg/mL (≈ 0.444 µM) against Cryptococcus neoformans; 0.25 µg/mL (≈ 0.444 µM) against Candida parapsilosis; 0.25 µg/mL (≈ 0.444 µM) in the assay on Candida tropicalis; 0.0039 µg/mL (≈ 0.00693 µM) against Trichophyton rubrum; 1 µg/mL (≈ 1.78 µM) with Fusarium. Moreover, the MIC80 with Nannizzia gypsea and in the assay with Aspergillus fumigatus was 0.0625 µg/mL (≈ 0.111 µM) in each case.
Turning to `O=C(/C=C/c1ccccc1Cl)Nc1ccc(N2CCN(CC(O)(Cn3cncn3)c3ccc(F)cc3F)CC2)cc1` (stereo unspecified), the MIC80 against Candida albicans is 0.0039 µg/mL (≈ 0.00674 µM); in the assay with Cryptococcus neoformans, 0.25 µg/mL (≈ 0.432 µM); with Candida parapsilosis it was 0.25 µg/mL (≈ 0.432 µM); in the assay with Candida tropicalis, 0.0625 µg/mL (≈ 0.108 µM); against Trichophyton rubrum, 0.0156 µg/mL (≈ 0.0269 µM); against Fusarium it was 1 µg/mL (≈ 1.73 µM). Besides, the values for the MIC80 in the assay with Nannizzia gypsea and in the assay with Aspergillus fumigatus were 0.0156 µg/mL (≈ 0.0269 µM) and 4 µg/mL (≈ 6.91 µM), respectively.
For `O=C(/C=C/c1cccc(Cl)c1)Nc1ccc(N2CCN(CC(O)(Cn3cncn3)c3ccc(F)cc3F)CC2)cc1` (stereo unspecified), the MIC80 is 0.0625 µg/mL (≈ 0.108 µM) in the assay with Candida albicans; 1 µg/mL (≈ 1.73 µM) against Cryptococcus neoformans; 1 µg/mL (≈ 1.73 µM) in the assay on Candida parapsilosis; 0.25 µg/mL (≈ 0.432 µM) against Candida tropicalis; 1 µg/mL (≈ 1.73 µM) against Trichophyton rubrum; 64 µg/mL (≈ 111 µM) against Fusarium. Further, the MIC80 with Nannizzia gypsea worked out at 0.0156 µg/mL (≈ 0.0269 µM); against Aspergillus fumigatus it was 64 µg/mL (≈ 111 µM).
For the compound `O=C(/C=C/c1ccc(Cl)cc1)Nc1ccc(N2CCN(CC(O)(Cn3cncn3)c3ccc(F)cc3F)CC2)cc1` (stereo unspecified), the MIC80 in the assay with Candida albicans stood at 0.0625 µg/mL (≈ 0.108 µM); against Cryptococcus neoformans, 1 µg/mL (≈ 1.73 µM); with Candida parapsilosis, 0.25 µg/mL (≈ 0.432 µM); against Candida tropicalis it was 0.25 µg/mL (≈ 0.432 µM); in the assay on Trichophyton rubrum it was 0.25 µg/mL (≈ 0.432 µM); in the assay on Fusarium, 4 µg/mL (≈ 6.91 µM). Besides, the MIC80 in the assay on Nannizzia gypsea was 0.25 µg/mL (≈ 0.432 µM); in the assay on Aspergillus fumigatus, 64 µg/mL (≈ 111 µM).
For the compound `O=C(/C=C/c1ccc(Cl)c(Cl)c1)Nc1ccc(N2CCN(CC(O)(Cn3cncn3)c3ccc(F)cc3F)CC2)cc1` (stereo unspecified), the MIC80 came to 0.0156 µg/mL (≈ 0.0254 µM) with Candida albicans; 0.25 µg/mL (≈ 0.408 µM) in the assay with Cryptococcus neoformans; 0.0625 µg/mL (≈ 0.102 µM) in the assay with Candida parapsilosis; 0.0625 µg/mL (≈ 0.102 µM) in the assay on Candida tropicalis; 0.0156 µg/mL (≈ 0.0254 µM) with Trichophyton rubrum; 0.25 µg/mL (≈ 0.408 µM) in the assay on Fusarium. Besides, the MIC80 was determined as 0.25 µg/mL (≈ 0.408 µM) against Nannizzia gypsea and 4 µg/mL (≈ 6.52 µM) against Aspergillus fumigatus.
Consider `O=C(/C=C/c1cccc(Br)c1)Nc1ccc(N2CCN(CC(O)(Cn3cncn3)c3ccc(F)cc3F)CC2)cc1` (stereo unspecified), for which the MIC80 in the assay on Candida albicans came out at 0.0625 µg/mL (≈ 0.1 µM); against Cryptococcus neoformans, 1 µg/mL (≈ 1.6 µM); in the assay on Candida parapsilosis, 0.25 µg/mL (≈ 0.401 µM); in the assay on Candida tropicalis, 0.25 µg/mL (≈ 0.401 µM); in the assay on Trichophyton rubrum, 0.0625 µg/mL (≈ 0.1 µM); with Fusarium, 1 µg/mL (≈ 1.6 µM). Moreover, the MIC80 is 1 µg/mL (≈ 1.6 µM) in the assay with Nannizzia gypsea and 16 µg/mL (≈ 25.7 µM) against Aspergillus fumigatus.
Take `O=C(/C=C/c1ccc(Br)cc1)Nc1ccc(N2CCN(CC(O)(Cn3cncn3)c3ccc(F)cc3F)CC2)cc1` (stereo unspecified): the MIC80 was 0.0625 µg/mL (≈ 0.1 µM) against Candida albicans; 0.25 µg/mL (≈ 0.401 µM) in the assay on Cryptococcus neoformans; 0.25 µg/mL (≈ 0.401 µM) against Candida parapsilosis; 0.25 µg/mL (≈ 0.401 µM) against Candida tropicalis; 0.0156 µg/mL (≈ 0.025 µM) with Trichophyton rubrum; 1 µg/mL (≈ 1.6 µM) in the assay with Fusarium. The MIC80 in the assay with Nannizzia gypsea was 0.25 µg/mL (≈ 0.401 µM); in the assay with Aspergillus fumigatus it was 4 µg/mL (≈ 6.42 µM).
For the compound `Cc1ccc(/C=C/C(=O)Nc2ccc(N3CCN(CC(O)(Cn4cncn4)c4ccc(F)cc4F)CC3)cc2)cc1` (stereo unspecified), the MIC80 against Candida albicans came out at 0.0625 µg/mL (≈ 0.112 µM); against Cryptococcus neoformans, 1 µg/mL (≈ 1.79 µM); in the assay on Candida parapsilosis, 0.25 µg/mL (≈ 0.448 µM); in the assay on Candida tropicalis, 0.25 µg/mL (≈ 0.448 µM); against Trichophyton rubrum it was 0.0156 µg/mL (≈ 0.0279 µM); against Fusarium, 16 µg/mL (≈ 28.6 µM). The figures for the MIC80 against Nannizzia gypsea and in the assay on Aspergillus fumigatus were 0.25 µg/mL (≈ 0.448 µM) and 64 µg/mL (≈ 115 µM), respectively.
With `COc1ccc(/C=C/C(=O)Nc2ccc(N3CCN(CC(O)(Cn4cncn4)c4ccc(F)cc4F)CC3)cc2)cc1OC` (stereo unspecified), the MIC80 in the assay with Candida albicans came out at 0.0156 µg/mL (≈ 0.0258 µM); in the assay on Cryptococcus neoformans it was 0.25 µg/mL (≈ 0.413 µM); in the assay on Candida parapsilosis, 0.0625 µg/mL (≈ 0.103 µM); against Candida tropicalis, 0.0625 µg/mL (≈ 0.103 µM); against Trichophyton rubrum it was 0.25 µg/mL (≈ 0.413 µM); in the assay with Fusarium, 1 µg/mL (≈ 1.65 µM). Also, the MIC80 worked out at 0.25 µg/mL (≈ 0.413 µM) against Nannizzia gypsea and 4 µg/mL (≈ 6.62 µM) against Aspergillus fumigatus.
